# Values of other authors, collected in patent US20220273698A1, “MEDICINAL AND/OR PHARMACEUTICAL COMPOSITIONS FOR INTRAVESICAL INSTILLATION, PREPARATION AND USE THEREOF” (priority 2019, published 2022).
# Columns and labels:
# [1] = oral medicine
# [2] = taking PPS over a long time
substance,measurement,setting,value
pentosan polysulfate sodium [Elmiron],active agent absorbed,[1],5%
same,side effect,[2],pigmentary maculopathy
